Experimental data reported in patent US20240270821A1, “GIP/GLP1/GCG TRI-RECEPTOR AGONISTS AND USES THEREOF” (priority 2023, published 2024).
Starred links: 1 amine or outer side, 2 acyl side, 3 side chain; linkers in the order of their positions; H or OH if unused. Non-standard residues stand in square brackets, D forms with d. Residues, ends and D or L forms follow the SMILES beside them. Groups on a side chain read outwards from the residue. *: point of attachment. C18 diacid = O=C(O)CCCCCCCCCCCCCCCCC(=O)*; αMePhe(2-F) = C[C@](N)(Cc1ccccc1F)C(=O)O; γGlu = O=C(O)[C@H](CCC(=O)[*:2])N[*:1]; αMeY = C[C@](N)(Cc1ccc(O)cc1)C(=O)O; 4Pal = N[C@@H](Cc1ccncc1)C(=O)O; αMeL = CC(C)C[C@](C)(N)C(=O)O; αMeS = C[C@](N)(CO)C(=O)O; Orn = NCCC[C@H](N)C(=O)O; AEEA = NCCOCCOCC(=O)O; Aib = CC(C)(N)C(=O)O

Experiments:
Format in all cases: cell-based
[1] = molecular target: T1, hGIPR (Homo sapiens, UniProt P48546); experiment: Functional cAMP activity in the presence of 1% HSA; settings: read-out: cAMP Rel EC50, hGIPR
T1 sequence (P48546 22-466): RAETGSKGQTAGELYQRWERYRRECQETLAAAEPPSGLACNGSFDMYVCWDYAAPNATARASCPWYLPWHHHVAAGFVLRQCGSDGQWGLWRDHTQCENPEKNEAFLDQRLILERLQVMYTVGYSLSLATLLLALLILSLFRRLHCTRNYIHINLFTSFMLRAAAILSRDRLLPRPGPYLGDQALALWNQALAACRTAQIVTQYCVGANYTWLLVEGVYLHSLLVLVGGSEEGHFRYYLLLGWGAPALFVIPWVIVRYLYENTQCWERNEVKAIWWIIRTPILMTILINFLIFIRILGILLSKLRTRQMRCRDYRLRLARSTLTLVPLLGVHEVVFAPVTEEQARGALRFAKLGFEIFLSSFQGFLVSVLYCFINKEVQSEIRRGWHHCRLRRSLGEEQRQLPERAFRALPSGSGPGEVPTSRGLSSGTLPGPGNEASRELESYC

[2] = molecular target: T2, hGLP-1R (Homo sapiens, UniProt P43220); experiment: Functional cAMP activity in the presence of 1% HSA; settings: read-out: cAMP Rel EC50, hGLP-1R
T2 sequence (P43220 24-463): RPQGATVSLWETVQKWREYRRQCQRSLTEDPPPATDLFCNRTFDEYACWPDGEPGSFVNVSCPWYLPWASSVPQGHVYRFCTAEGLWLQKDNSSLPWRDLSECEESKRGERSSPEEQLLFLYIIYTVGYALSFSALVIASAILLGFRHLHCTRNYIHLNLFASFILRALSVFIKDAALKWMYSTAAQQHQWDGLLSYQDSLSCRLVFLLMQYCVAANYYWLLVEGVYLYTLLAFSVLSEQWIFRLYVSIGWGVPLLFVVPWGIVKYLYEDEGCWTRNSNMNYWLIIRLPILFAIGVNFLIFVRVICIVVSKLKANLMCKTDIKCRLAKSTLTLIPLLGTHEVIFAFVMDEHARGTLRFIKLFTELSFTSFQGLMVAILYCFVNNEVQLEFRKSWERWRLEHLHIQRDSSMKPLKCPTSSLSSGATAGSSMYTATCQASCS

[3] = molecular target: human GcgR (Homo sapiens, UniProt P47871); experiment: Functional cAMP activity in the presence of 1% HSA; settings: read-out: cAMP Rel EC50, hGcgR
human GcgR, sequence (P47871 26-477): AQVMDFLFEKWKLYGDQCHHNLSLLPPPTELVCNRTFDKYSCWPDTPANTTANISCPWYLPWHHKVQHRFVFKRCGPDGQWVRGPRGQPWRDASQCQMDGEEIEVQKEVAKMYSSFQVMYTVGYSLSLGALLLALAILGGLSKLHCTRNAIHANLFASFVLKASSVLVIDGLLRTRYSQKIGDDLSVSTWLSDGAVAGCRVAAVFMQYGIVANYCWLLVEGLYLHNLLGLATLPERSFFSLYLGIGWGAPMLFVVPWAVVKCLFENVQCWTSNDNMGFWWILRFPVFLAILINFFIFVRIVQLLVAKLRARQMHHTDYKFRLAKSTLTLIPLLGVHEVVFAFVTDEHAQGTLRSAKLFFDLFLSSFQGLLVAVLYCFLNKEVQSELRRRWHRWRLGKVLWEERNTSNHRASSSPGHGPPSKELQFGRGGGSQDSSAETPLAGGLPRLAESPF

[4] = molecular target: T1, hGIPR; experiment: Functional cAMP activation in the presence of 0.1% casein (no HSA); settings: in the presence of 0.1% casein (no HSA); geometric mean; read-out: Relative cAMP EC50, hGIPR;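 on Relative cAMP EC50, hGIPR: intracellular cAMP rise after 30 min at 37 °C read by HTRF against a standard curve, scaled between buffer alone (0%) and top control ligand concentration (100%), four-parameter fit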;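 on Relative cAMP EC50, hGLP-1R: intracellular cAMP rise after 30 min at 37 °C read by HTRF, normalized between buffer only (0%) and maximal control ligand (100%), four-parameter variable-slope fit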;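 on Relative cAMP EC50, hGcgR: intracellular cAMP rise after 30 min at 37 °C, read by HTRF against a cAMP standard curve, scaled from buffer only (0%) to maximal control ligand response (100%)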
[5] = molecular target: T2, hGLP-1R; experiment: as above; settings: in the presence of 0.1% casein (no HSA); geometric mean; read-out: Relative cAMP EC50, hGLP-1R
[6] = molecular target: hGcgR (Homo sapiens, UniProt P47871); experiment: as above; settings: in the presence of 0.1% casein (no HSA); geometric mean; read-out: Relative cAMP EC50, hGcgR;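 further: intracellular cAMP rise after 30 min at 37 °C, read by HTRF against a cAMP standard curve, scaled from buffer only (0%) to maximal control ligand response (100%)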
hGcgR, sequence (P47871 26-477): as above

EC50 [1] [nM] | EC50 [2] [nM] | EC50 [3] [nM] | EC50 [4] [nM] | EC50 [5] [nM] | EC50 [6] [nM] | SMILES
1.97 | 54.5 | 666 | 0.0183 | 0.392 | 4.48 | CC[C@H](C)[C@H](NC(=O)[C@H](Cc1ccccc1)NC(=O)[C@H](CCCN)NC(=O)C(C)(C)NC(=O)[C@H](CCC(N)=O)NC(=O)[C@H](C)NC(=O)[C@H](CCCCNC(=O)CC[C@H](NC(=O)CC[C@H](NC(=O)CCCCCCCCCCCCCCCCC(=O)O)C(=O)O)C(=O)O)NC(=O)[C@H](CCCN)NC(=O)[C@H](CC(=O)O)NC(=O)[C@H](CC(C)C)NC(=O)[C@](C)(CC(C)C)NC(=O)[C@@H](NC(=O)[C@H](CO)NC(=O)[C@H](Cc1ccncc1)NC(=O)[C@H](CC(=O)O)NC(=O)[C@H](CO)NC(=O)[C@@H](NC(=O)[C@](C)(Cc1ccccc1F)NC(=O)[C@@H](NC(=O)CNC(=O)[C@H](CCC(N)=O)NC(=O)C(C)(C)NC(=O)[C@@H](N)Cc1ccc(O)cc1)[C@@H](C)O)[C@@H](C)O)[C@@H](C)CC)C(=O)N[C@H](CCC(=O)O)C(=O)N[C@@](C)(Cc1ccc(O)cc1)C(=O)N[C@@H](CC(C)C)C(=O)N[C@@H](CC(C)C)C(=O)N[C@@H](CCC(=O)O)C(=O)NCC(=O)NCC(=O)N1CCC[C@H]1C(=O)N[C@@H](CO)C(=O)N[C@@H](CO)C(=O)NC(C)(C)C(=O)N[C@@H](CCC(=O)O)C(=O)N1CCC[C@H]1C(=O)N1CCC[C@H]1C(=O)N1CCC[C@H]1C(=O)N[C@@H](CCC(=O)O)C(N)=O [Example 373] (H-Y[Aib]QGT[αMePhe(2-F)]TSD[4Pal]SI[αMeL]LD[Orn]K([γGlu-γGlu-C18 diacid])AQ[Aib][Orn]FI[dE][αMeY]LLEGGPSS[Aib]EPPPE-NH2)
1.78 | 18 | 137 | 0.0165 | 0.299 | 1.32 | CC[C@H](C)[C@H](NC(=O)[C@H](CC(C)C)NC(=O)[C@](C)(Cc1ccc(O)cc1)NC(=O)[C@@H](CCC(=O)O)NC(=O)[C@@H](NC(=O)[C@H](Cc1ccccc1)NC(=O)[C@H](CCCN)NC(=O)C(C)(C)NC(=O)[C@H](CCC(N)=O)NC(=O)[C@H](C)NC(=O)[C@H](CCCCNC(=O)CC[C@H](NC(=O)CC[C@H](NC(=O)CCCCCCCCCCCCCCCCC(=O)O)C(=O)O)C(=O)O)NC(=O)[C@H](CCCN)NC(=O)[C@H](CC(=O)O)NC(=O)[C@H](CC(C)C)NC(=O)[C@](C)(CC(C)C)NC(=O)[C@@H](NC(=O)[C@](C)(CO)NC(=O)[C@H](Cc1ccncc1)NC(=O)[C@H](CC(=O)O)NC(=O)[C@H](CO)NC(=O)[C@@H](NC(=O)[C@](C)(Cc1ccccc1F)NC(=O)[C@@H](NC(=O)CNC(=O)[C@H](CCC(N)=O)NC(=O)C(C)(C)NC(=O)[C@@H](N)Cc1ccc(O)cc1)[C@@H](C)O)[C@@H](C)O)[C@@H](C)CC)[C@@H](C)CC)C(=O)N[C@@H](CCC(=O)O)C(=O)NCC(=O)NCC(=O)N1CCC[C@H]1C(=O)N[C@@H](CO)C(=O)N[C@@H](CO)C(=O)NCC(=O)N[C@@H](CCC(=O)O)C(=O)N1CCC[C@H]1C(=O)N1CCC[C@H]1C(=O)N1CCC[C@H]1C(=O)N[C@@H](CO)C(N)=O [Example 375] (H-Y[Aib]QGT[αMePhe(2-F)]TSD[4Pal][αMeS]I[αMeL]LD[Orn]K([γGlu-γGlu-C18 diacid])AQ[Aib][Orn]FI[dE][αMeY]LIEGGPSSGEPPPS-NH2)

Continued, compound first:

SMILES | EC50 [1] [nM] | EC50 [2] [nM] | EC50 [3] [nM] | EC50 [4] [nM] | EC50 [5] [nM] | EC50 [6] [nM]
CC[C@H](C)[C@H](NC(=O)[C@H](Cc1ccccc1)NC(=O)[C@H](CCCN)NC(=O)C(C)(C)NC(=O)[C@H](CCC(N)=O)NC(=O)[C@H](C)NC(=O)[C@H](CCCCNC(=O)CC[C@H](NC(=O)CC[C@H](NC(=O)CCCCCCCCCCCCCCCCC(=O)O)C(=O)O)C(=O)O)NC(=O)[C@H](CCCN)NC(=O)[C@H](CC(=O)O)NC(=O)[C@H](CC(C)C)NC(=O)[C@](C)(CC(C)C)NC(=O)[C@@H](NC(=O)[C@](C)(CO)NC(=O)[C@H](Cc1ccncc1)NC(=O)[C@H](CC(=O)O)NC(=O)[C@H](CO)NC(=O)[C@@H](NC(=O)[C@](C)(Cc1ccccc1F)NC(=O)[C@@H](NC(=O)CNC(=O)[C@H](CCC(N)=O)NC(=O)C(C)(C)NC(=O)[C@@H](N)Cc1ccc(O)cc1)[C@@H](C)O)[C@@H](C)O)[C@@H](C)CC)C(=O)N[C@H](CCC(=O)O)C(=O)N[C@@](C)(Cc1ccc(O)cc1)C(=O)N[C@@H](CC(C)C)C(=O)N[C@@H](CC(C)C)C(=O)N[C@@H](CCC(=O)O)C(=O)NCC(=O)NCC(=O)N1CCC[C@H]1C(=O)N[C@@H](CO)C(=O)N[C@@H](CO)C(=O)NCC(=O)N[C@@H](CCC(=O)O)C(=O)N1CCC[C@H]1C(=O)N1CCC[C@H]1C(=O)N1CCC[C@H]1C(=O)N[C@@H](CO)C(N)=O [Example 374] (H-Y[Aib]QGT[αMePhe(2-F)]TSD[4Pal][αMeS]I[αMeL]LD[Orn]K([γGlu-γGlu-C18 diacid])AQ[Aib][Orn]FI[dE][αMeY]LLEGGPSSGEPPPS-NH2) | 2.28 | 24.5 | 65.4 | 0.0186 | 0.336 | 0.908
CC[C@H](C)[C@H](NC(=O)[C@H](Cc1ccccc1)NC(=O)[C@H](CCCN)NC(=O)C(C)(C)NC(=O)[C@H](CCC(N)=O)NC(=O)[C@H](C)NC(=O)[C@H](CCCCNC(=O)COCCOCCNC(=O)CC[C@H](NC(=O)CC[C@H](NC(=O)CCCCCCCCCCCCCCCCC(=O)O)C(=O)O)C(=O)O)NC(=O)[C@H](CCCN)NC(=O)[C@H](CC(=O)O)NC(=O)[C@H](CC(C)C)NC(=O)[C@](C)(CC(C)C)NC(=O)[C@@H](NC(=O)[C@](C)(CO)NC(=O)[C@H](Cc1ccncc1)NC(=O)[C@H](CC(=O)O)NC(=O)[C@H](CO)NC(=O)[C@@H](NC(=O)[C@](C)(Cc1ccccc1F)NC(=O)[C@@H](NC(=O)CNC(=O)[C@H](CCC(N)=O)NC(=O)C(C)(C)NC(=O)[C@@H](N)Cc1ccc(O)cc1)[C@@H](C)O)[C@@H](C)O)[C@@H](C)CC)C(=O)N[C@H](CCC(=O)O)C(=O)N[C@@](C)(Cc1ccc(O)cc1)C(=O)N[C@@H](CC(C)C)C(=O)N[C@@H](CC(C)C)C(=O)N[C@@H](CCC(=O)O)C(=O)NCC(=O)NCC(=O)N1CCC[C@H]1C(=O)N[C@@H](CO)C(=O)N[C@@H](CO)C(=O)NCC(=O)N[C@@H](CCC(=O)O)C(=O)N1CCC[C@H]1C(=O)N1CCC[C@H]1C(=O)N1CCC[C@H]1C(=O)N[C@@H](CO)C(N)=O [Example 376] (H-Y[Aib]QGT[αMePhe(2-F)]TSD[4Pal][αMeS]I[αMeL]LD[Orn]K([AEEA-γGlu-γGlu-C18 diacid])AQ[Aib][Orn]FI[dE][αMeY]LLEGGPSSGEPPPS-NH2) | 5.42 | 26 | 115 | 0.0354 | 0.445 | 1.71
CC[C@H](C)[C@H](NC(=O)[C@H](Cc1ccccc1)NC(=O)[C@H](CCCN)NC(=O)C(C)(C)NC(=O)[C@H](CCC(N)=O)NC(=O)[C@H](C)NC(=O)[C@H](CCCCNC(=O)COCCOCCNC(=O)CC[C@H](NC(=O)CCCCCCCCCCCCCCCCC(=O)O)C(=O)O)NC(=O)[C@H](CCCN)NC(=O)[C@H](CC(=O)O)NC(=O)[C@H](CC(C)C)NC(=O)[C@](C)(CC(C)C)NC(=O)[C@@H](NC(=O)[C@](C)(CO)NC(=O)[C@H](Cc1ccncc1)NC(=O)[C@H](CC(=O)O)NC(=O)[C@H](CO)NC(=O)[C@@H](NC(=O)[C@](C)(Cc1ccccc1F)NC(=O)[C@@H](NC(=O)CNC(=O)[C@H](CCC(N)=O)NC(=O)C(C)(C)NC(=O)[C@@H](N)Cc1ccc(O)cc1)[C@@H](C)O)[C@@H](C)O)[C@@H](C)CC)C(=O)N[C@H](CCC(=O)O)C(=O)N[C@@](C)(Cc1ccc(O)cc1)C(=O)N[C@@H](CC(C)C)C(=O)N[C@@H](CC(C)C)C(=O)N[C@@H](CCC(=O)O)C(=O)NCC(=O)NCC(=O)N1CCC[C@H]1C(=O)N[C@@H](CO)C(=O)N[C@@H](CO)C(=O)NCC(=O)N[C@@H](CCC(=O)O)C(=O)N1CCC[C@H]1C(=O)N1CCC[C@H]1C(=O)N1CCC[C@H]1C(=O)N[C@@H](CCC(=O)O)C(N)=O [Example 377] (H-Y[Aib]QGT[αMePhe(2-F)]TSD[4Pal][αMeS]I[αMeL]LD[Orn]K([AEEA-γGlu-C18 diacid])AQ[Aib][Orn]FI[dE][αMeY]LLEGGPSSGEPPPE-NH2) | 11.1 | 29.4 | 163 | 0.0377 | 0.367 | 1.36
